{"source": "patent US20190298664A1", "about": "“METHOD AND KIT FOR MYOCARDIAL REPERFUSION, AND METHOD FOR ATTENUATING OR REDUCING MYOCARDIAL REPERFUSION INJURY” (Academia Sinica, priority 2018, published 2019)", "key": {"[1]": {"biological_target": "T1, PTP-PEST catalytic domain (Homo sapiens, UniProt Q05209)", "T1 construct": "PTP PEST Catalytic Domain construct (Amino Acid:1-300) with 6 His tag at N-terminal; 6 His (N, cleaved yes); made in house; host or cells: Sf9 insect cells (Sf9-VECL-01), Bac-to-Bac baculovirus system", "T1 sequence (Q05209 1-300)": "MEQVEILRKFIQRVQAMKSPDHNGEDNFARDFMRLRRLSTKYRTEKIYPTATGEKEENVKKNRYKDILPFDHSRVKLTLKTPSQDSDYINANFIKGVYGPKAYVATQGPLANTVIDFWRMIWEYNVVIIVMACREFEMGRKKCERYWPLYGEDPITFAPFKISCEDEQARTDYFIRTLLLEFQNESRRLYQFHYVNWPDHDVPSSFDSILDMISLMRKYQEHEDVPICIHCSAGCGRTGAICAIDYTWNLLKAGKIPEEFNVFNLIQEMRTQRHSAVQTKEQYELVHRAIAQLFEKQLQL", "test": "IC50 kinetic assay: phosphatase activity of purified PTP-PEST catalytic domain with phospho-Paxillin peptide substrate", "type": "biochemical", "experimental": "PTP PEST Catalytic Domain construct (Amino Acid:1-300) with 6 His tag at N-terminal were expressed in insect cell Sf9-VECL-01 Cell line, using Bac-to-Bac Baculovirus expression system. Cells were infected with baculovirus at 27° C. and harvested after 65 hours of infection. Post harvesting cell suspension were centrifuged and pellet was stored at -80° C. To purify the protein, pellet was thawed and then dissolved in lysis buffer containing 50 mM Tris-HCl, 500 mM NaCl, 5% Glycerol, pH-7.5, and protease inhibitor cocktail tablet, EDTA free from Roche. Cell were lysed by TS-series cell disrupter (Constant System Ltd.) then lysate was centrifuged at 20000 RPM for 30 minutes at 4° C. using JA25.5 rotor in an Avanti J-26-XPI Centrifuge. […] After SEC purity of the protein was analyzed by SDS page and quantification was carried out by using NanoDrop Spectrophotometer. […] The absorbance of the reaction was measured at 650 nm by using Tecan Infinite […] instrument. The absorbance value was converted to amount of phosphate produced in reaction based on the standard curve generated from known phosphate concentration. Data generated in the reaction was fitted using nonlinear regression mode and IC50 value were calculated based on the equation function “Log(inhibitor) vs response-variable slope” from Graph Pad Prism 5.0."}, "[2]": {"system": "myocardial protein tyrosine phosphorylation", "test": "Immunoblotting of heart extracts of I/R mice (anti-pTyr, p-Paxillin, p-p130cas, p-ErbB-2)", "type": "in vivo, mouse", "settings": "2 mg/kg IP ten min before reperfusion; four hours post-I/R", "experimental": "(§1) We anesthetized the mouse with 5% isoflurane mixed with room air until loss of sensation of pain and then maintained the mouse in anesthesia status with 2% isoflurane mixed with room air through the whole procedure. The mouse's body temperature was maintained at 37° C. by a heating pad. After the mouse was intubated, we provided artificial ventilation to the mouse with a small animal ventilator. Then the chest cavity was opened at the second intercostal space and homemade chest retractors were utilized to widen the incision. We pulled the pericardium apart carefully and exposed the left anterior descending artery (LAD). A 7-0 silk was put underneath the LAD at the position of the tip of the left auricle, a 6 mm length of PE-10 tube was put on the surface of the LAD, and then a double knot was made to occlude the blood flow of LAD. The success of ligation was confirmed by paling the anterior wall of the LV. For the reperfusion group, the LAD knot would be untied for the purpose of reperfusion after 1 hour of ischemia. For the sham operation group, all procedures were the same except for the knot that occluded the LAD flow. After the successful procedure, we left the silk in situ, closed the chest cavity and weaned the animal from the ventilator.\nHearts from mice received different treatment were gently homogenized in ice-cold RIPA buffer [250 mM Tris-HCl pH 7.4, 750 mM NaCl, detergent mix (5% NP-40, 2.5% Na-deoxycholate and 0.5% SDS), and 1× protease inhibitor cocktail (EDTA free)] containing phosphatase inhibitors (2 mM Na3VO4, 10 mM NaF, and 10 mM Na2P2O7). The homogenates were centrifuged at 16,100×g at 4° C. for 10 minutes to remove the debris. Protein concentrations were determined by Bradford protein assay. Equal amounts of protein extract from those mice were separated by SDS-PAGE on an 8% or 10% polyacrylamide gel and then transferred to PVDF membrane. Membranes were incubated with indicated primary antibody at 4° C. overnight followed by incubated with secondary antibodies for 1 hour at room temperature. The protein abundance was detected by the signal intensity of each specific band."}, "I/R mice": {"system": "I/R mice", "test": "Myocardial infarct size (Evans blue/TTC staining) in I/R mice", "type": "in vivo, mouse", "settings": "2 mg/kg IP", "experimental": "as §1\nAt the end of experiment, the animal was sacrificed. We opened the chest cavity and exposed the heart and aorta. The heart was perfused with 0.9% saline from the apex until the coronary vessels and myocardium turning into pale color. After saline perfusion, the LAD knot was tied again. 1 mL of 1% Evans blue dye was delivered into the heart through the aortic root by retrograde injection. The dye uniformly perfused the whole heart except in the area of the heart previously perfused by the occluded coronary artery (area at risk, AAR). Then the heart was quickly removed, washed in ice-cold 0.9% saline followed by frozen at −20° C. for 20 minutes, then cut into slices of 1 mm with heart matrix. […] The areas stained with Evans blue negative but TTC-positive (AAR), and TTC-negative area (infarct area) were all measured digitally by ImageJ software. […]"}}, "note": "Read-outs that look alike come from different tables or passages of the source.", "data": [{"molecule": "CC(=O)OC[C@H]1O[C@@H]([S-])[C@H](OC(C)=O)[C@@H](OC(C)=O)[C@@H]1OC(C)=O.CCP(CC)CC.[Au+]", "note": "[Auranofin, auranofin]", "values": [{"measurement": "IC50", "setting": "[1]; read-out: IC50 of the auranofin to the PTP-PEST, as restated in the summary", "result": 38.7, "unit": "µM"}, {"measurement": "IC50", "setting": "[1]; synthetic phospho-Paxillin peptide as substrate, 25 nM protein, 50 μM peptide, 30° C., 30 min, read-out: IC50 on enzymatic activity of purified PTP-PEST", "result": 38.7, "unit": "µM"}, {"measurement": "Decreased protein tyrosine phosphorylation in the I/R heart (anti-pTyr)", "setting": "[2]", "result": "reversed"}, {"measurement": "I/R-induced decrease of pTyr signaling in Paxillin and p130Cas", "setting": "[2]", "result": "restored"}, {"measurement": "I/R-suppressed phosphorylation of Tyr1248 in ErbB-2", "setting": "[2]", "result": "restored"}, {"measurement": "Infarct size", "setting": "I/R mice; four hours after reperfusion, versus vehicle-only controls", "result": "significantly decreased"}, {"measurement": "Infarct size", "setting": "I/R mice; one day after reperfusion", "result": "smaller"}]}]}
